# From patent publication US9695155B2, “Herbicidal substituted pyrimidinyloxy benzene compounds” (E. I. DU PONT DE NEMOURS AND COMPANY, priority 2013, dated 2017)
# Columns and labels:
# [1] = tested on: spring barley; assay: Test D preemergence; assay type: in vivo, Hordeum vulgare
# Text: (§1) Seeds of plant species selected from bluegrass (annual bluegrass, Poa annua), blackgrass (Alopecurus myosuroides), canarygrass (littleseed canarygrass, Phalaris minor), chickweed (common chickweed, Stellaria media), galium (catchweed bedstraw, Galium aparine), bromegrass, downy (downy bromegrass, Bromus tectorum), field poppy (Papaver rhoeas), field violet (Viola arvensis), green foxtail (Setaria viridis), deadnettle (henbit deadnettle, Lamium amplexicaule), Italian ryegrass (Lolium multiflorum), kochia (Kochia scoparia), lambsquarters (Chenopodium album), oilseed rape (Brassica napus), pigweed (Amaranthus retroflexus), chamomile (scentless chamomile, Matricaria inodora), Russian thistle (Salsola kali), speedwell (bird's-eye speedwell, Veronica persica), spring barley (Hordeum vulgare), spring wheat (Triticum aestivum), wild buckwheat (Polygonum convolvulus), wild mustard (Sinapis arvensis), wild oat (Avena fatua), wild radish (Raphanus raphanistrum), windgrass (Apera spica-venti), winter barley (Hordeum vulgare), and winter wheat (Triticum aestivum) were planted into a silt loam soil and treated preemergence with test chemicals formulated in a non-phytotoxic solvent mixture which included a surfactant.
# (§2) At the same time, these species were planted in pots containing Redi-Earth® planting medium (Scotts Company, 14111 Scottslawn Road, Marysville, Ohio 43041) comprising spaghnum peat moss, vermiculite, wetting agent and starter nutrients and treated with postemergence applications of the test chemicals formulated in the same manner. Plants ranged in height from 2 to 18 cm (1- to 4-leaf stage). Treated plants and controls were maintained in a controlled growth environment for 7 to 21 days after which time all species were compared to controls and visually evaluated. Plant response ratings, summarized in Table D, are based on a scale of 0 to 100 where 0 is no effect and 100 is complete control. A dash (-) response means no test result.
# [2] = tested on: winter barley; assay: Test D preemergence; assay type: in vivo, Hordeum vulgare
# Text: as §1, §2
# [3] = tested on: windgrass; assay: Test D postemergence; assay type: in vivo, Apera spica-venti
# Text: as §1, §2
# [4] = tested on: wild radish; assay: Test D postemergence; assay type: in vivo, Raphanus raphanistrum
# Text: as §1, §2
# [5] = tested on: blackgrass; assay: Test D preemergence; assay type: in vivo, Alopecurus myosuroides
# Text: as §1, §2
# [6] = tested on: chickweed; assay: Test D preemergence; assay type: in vivo, Stellaria media
# Text: as §1, §2
# [7] = tested on: field poppy; assay: Test D postemergence; assay type: in vivo, Papaver rhoeas
# Text: as §1, §2
# [8] = tested on: wild radish; assay: Test D preemergence; assay type: in vivo, Raphanus raphanistrum
# Text: as §1, §2
# [9] = tested on: wild oat; assay: Test D preemergence; assay type: in vivo, Avena fatua
# Text: as §1, §2
# [10] = tested on: Italian ryegrass; assay: Test D preemergence; assay type: in vivo, Lolium multiflorum
# Text: as §1, §2
# [11] = tested on: bromegrass, downy; assay: Test D preemergence; assay type: in vivo, Bromus tectorum
# Text: as §1, §2
# [12] = 16 g ai/ha, scale 0 (no effect) to 100 (complete control)
# [13] = 31 g ai/ha, scale 0 to 100 (0 no effect, 100 complete control)
# [14] = 62 g ai/ha, scale 0 to 100 (0 no effect, 100 complete control)
# [15] = 125 g ai/ha, scale 0 to 100 (0 no effect, 100 complete control)
# [16] = 250 g ai/ha, scale 0 to 100 (0 no effect, 100 complete control)
# [17] = 31 g ai/ha, scale 0 (no effect) to 100 (complete control)
compound,measurement,setting,value
Clc1cnc(Oc2ccccc2-n2cc(Cl)cn2)nc1 [Compound 3],"Plant response rating, Barley, Spring",[1]; [12],0
same,"Plant response rating, Barley, Spring","[1]; 31 g ai/ha, scale 0-100",0
same,"Plant response rating, Barley, Spring","[1]; 62 g ai/ha, scale 0-100",0
same,"Plant response rating, Barley, Spring","[1]; 125 g ai/ha, scale 0-100",0
same,"Plant response rating, Barley, Spring","[1]; 250 g ai/ha, scale 0-100",0
same,"Plant response rating, Barley, Winter",[2]; [12],0
same,"Plant response rating, Barley, Winter","[2]; 31 g ai/ha, scale 0-100",0
same,"Plant response rating, Barley, Winter","[2]; 62 g ai/ha, scale 0-100",0
same,"Plant response rating, Barley, Winter","[2]; 125 g ai/ha, scale 0-100",10
same,"Plant response rating, Barley, Winter","[2]; 250 g ai/ha, scale 0-100",20
same,"Plant response rating, Windgrass","[3]; 16 g ai/ha, scale 0-100",70
same,"Plant response rating, Windgrass",[3]; [13],0
same,"Plant response rating, Windgrass",[3]; [14],0
same,"Plant response rating, Windgrass",[3]; [15],0
same,"Plant response rating, Windgrass",[3]; [16],10
same,"Plant response rating, Radish, Wild","[4]; 16 g ai/ha, scale 0-100",70
same,"Plant response rating, Radish, Wild",[4]; [13],30
same,"Plant response rating, Radish, Wild",[4]; [14],40
same,"Plant response rating, Radish, Wild",[4]; [15],50
same,"Plant response rating, Radish, Wild",[4]; [16],75
same,"Plant response rating, Blackgrass",[5]; [12],0
same,"Plant response rating, Blackgrass","[5]; 31 g ai/ha, scale 0-100",0
same,"Plant response rating, Blackgrass","[5]; 62 g ai/ha, scale 0-100",0
same,"Plant response rating, Blackgrass","[5]; 125 g ai/ha, scale 0-100",0
same,"Plant response rating, Blackgrass","[5]; 250 g ai/ha, scale 0-100",0
same,"Plant response rating, Chickweed",[6]; [12],0
same,"Plant response rating, Chickweed","[6]; 62 g ai/ha, scale 0-100",0
same,"Plant response rating, Chickweed","[6]; 250 g ai/ha, scale 0-100",90
same,"Plant response rating, Field Poppy","[7]; 16 g ai/ha, scale 0-100",10
same,"Plant response rating, Field Poppy",[7]; [13],0
same,"Plant response rating, Field Poppy",[7]; [14],0
same,"Plant response rating, Field Poppy",[7]; [16],0
same,"Plant response rating, Radish, Wild",[8]; [12],0
same,"Plant response rating, Radish, Wild",[8]; [17],20
same,"Plant response rating, Radish, Wild","[8]; 62 g ai/ha, scale 0-100",60
same,"Plant response rating, Radish, Wild","[8]; 125 g ai/ha, scale 0-100",90
same,"Plant response rating, Radish, Wild","[8]; 250 g ai/ha, scale 0-100",95
same,"Plant response rating, Oat, Wild",[9]; [12],0
same,"Plant response rating, Oat, Wild","[9]; 31 g ai/ha, scale 0-100",0
same,"Plant response rating, Oat, Wild","[9]; 62 g ai/ha, scale 0-100",0
same,"Plant response rating, Oat, Wild","[9]; 125 g ai/ha, scale 0-100",0
same,"Plant response rating, Oat, Wild","[9]; 250 g ai/ha, scale 0-100",10
same,"Plant response rating, Ryegrass, Italian",[10]; [12],0
same,"Plant response rating, Ryegrass, Italian",[10]; [17],0
same,"Plant response rating, Ryegrass, Italian","[10]; 62 g ai/ha, scale 0-100",0
same,"Plant response rating, Ryegrass, Italian","[10]; 125 g ai/ha, scale 0-100",0
same,"Plant response rating, Ryegrass, Italian","[10]; 250 g ai/ha, scale 0-100",0
same,"Plant response rating, Bromegrass, Downy",[11]; [12],0
same,"Plant response rating, Bromegrass, Downy","[11]; 31 g ai/ha, scale 0-100",0
same,"Plant response rating, Bromegrass, Downy","[11]; 62 g ai/ha, scale 0-100",0
same,"Plant response rating, Bromegrass, Downy","[11]; 125 g ai/ha, scale 0-100",0
same,"Plant response rating, Bromegrass, Downy","[11]; 250 g ai/ha, scale 0-100",0
"Fc1cccc(Oc2ncc(Cl)cn2)c1-n1cc(Br)cn1 [Compound 178, 2-[2-(4-bromo-1H-pyrazol-1-yl)-3-fluorophenoxy]-5-chloropyrimidine]",pest or weed control at 16 g/ha,"[3]; Apera spica-venti, post-emergence, 16 g ai/ha, scale 0-100, read-out: Plant response rating, Windgrass",5%
same,pest or weed control at 31 g/ha,"[3]; Apera spica-venti, post-emergence, 31 g ai/ha, scale 0 to 100 (0 no effect, 100 complete control), read-out: Plant response rating, Windgrass",10%
same,pest or weed control at 62 g/ha,"[3]; Apera spica-venti, post-emergence, 62 g ai/ha, scale 0 to 100 (0 no effect, 100 complete control), read-out: Plant response rating, Windgrass",15%
same,pest or weed control at 125 g/ha,"[3]; Apera spica-venti, post-emergence, 125 g ai/ha, scale 0 to 100 (0 no effect, 100 complete control), read-out: Plant response rating, Windgrass",20%
same,pest or weed control at 16 g/ha,"[4]; Raphanus raphanistrum, post-emergence, 16 g ai/ha, scale 0-100, read-out: Plant response rating, Radish, Wild",60%
same,pest or weed control at 31 g/ha,"[4]; Raphanus raphanistrum, post-emergence, 31 g ai/ha, scale 0 to 100 (0 no effect, 100 complete control), read-out: Plant response rating, Radish, Wild",65%
same,pest or weed control at 62 g/ha,"[4]; Raphanus raphanistrum, post-emergence, 62 g ai/ha, scale 0 to 100 (0 no effect, 100 complete control), read-out: Plant response rating, Radish, Wild",70%
same,pest or weed control at 125 g/ha,"[4]; Raphanus raphanistrum, post-emergence, 125 g ai/ha, scale 0 to 100 (0 no effect, 100 complete control), read-out: Plant response rating, Radish, Wild",80%
same,pest or weed control at 16 g/ha,"[5]; Alopecurus myosuroides, pre-emergence, 16 g ai/ha, scale 0 (no effect) to 100 (complete control), read-out: Plant response rating, Blackgrass",5%
same,pest or weed control at 31 g/ha,"[5]; Alopecurus myosuroides, pre-emergence, 31 g ai/ha, scale 0-100, read-out: Plant response rating, Blackgrass",10%
same,pest or weed control at 62 g/ha,"[5]; Alopecurus myosuroides, pre-emergence, 62 g ai/ha, scale 0-100, read-out: Plant response rating, Blackgrass",35%
same,pest or weed control at 125 g/ha,"[5]; Alopecurus myosuroides, pre-emergence, 125 g ai/ha, scale 0-100, read-out: Plant response rating, Blackgrass",85%
same,pest or weed control at 16 g/ha,"[6]; Stellaria media, pre-emergence, 16 g ai/ha, scale 0 (no effect) to 100 (complete control), read-out: Plant response rating, Chickweed",0%
same,pest or weed control at 31 g/ha,"[6]; Stellaria media, pre-emergence, 31 g ai/ha, scale 0-100, read-out: Plant response rating, Chickweed",50%
same,pest or weed control at 62 g/ha,"[6]; Stellaria media, pre-emergence, 62 g ai/ha, scale 0-100, read-out: Plant response rating, Chickweed",85%
same,pest or weed control at 125 g/ha,"[6]; Stellaria media, pre-emergence, 125 g ai/ha, scale 0-100, read-out: Plant response rating, Chickweed",90%
same,pest or weed control at 16 g/ha,"[7]; Papaver rhoeas, post-emergence, 16 g ai/ha, scale 0-100, read-out: Plant response rating, Field Poppy",45%
same,pest or weed control at 31 g/ha,"[7]; Papaver rhoeas, post-emergence, 31 g ai/ha, scale 0 to 100 (0 no effect, 100 complete control), read-out: Plant response rating, Field Poppy",55%
same,pest or weed control at 62 g/ha,"[7]; Papaver rhoeas, post-emergence, 62 g ai/ha, scale 0 to 100 (0 no effect, 100 complete control), read-out: Plant response rating, Field Poppy",65%
same,pest or weed control at 125 g/ha,"[7]; Papaver rhoeas, post-emergence, 125 g ai/ha, scale 0 to 100 (0 no effect, 100 complete control), read-out: Plant response rating, Field Poppy",75%
same,pest or weed control at 16 g/ha,"[8]; Raphanus raphanistrum, pre-emergence, 16 g ai/ha, scale 0 (no effect) to 100 (complete control), read-out: Plant response rating, Radish, Wild",55%
same,pest or weed control at 31 g/ha,"[8]; Raphanus raphanistrum, pre-emergence, 31 g ai/ha, scale 0 (no effect) to 100 (complete control), read-out: Plant response rating, Radish, Wild",90%
same,pest or weed control at 62 g/ha,"[8]; Raphanus raphanistrum, pre-emergence, 62 g ai/ha, scale 0-100, read-out: Plant response rating, Radish, Wild",100%
same,pest or weed control at 125 g/ha,"[8]; Raphanus raphanistrum, pre-emergence, 125 g ai/ha, scale 0-100, read-out: Plant response rating, Radish, Wild",100%
same,pest or weed control at 16 g/ha,"[9]; Avena fatua, pre-emergence, 16 g ai/ha, scale 0 (no effect) to 100 (complete control), read-out: Plant response rating, Oat, Wild",0%
same,pest or weed control at 31 g/ha,"[9]; Avena fatua, pre-emergence, 31 g ai/ha, scale 0-100, read-out: Plant response rating, Oat, Wild",0%
same,pest or weed control at 62 g/ha,"[9]; Avena fatua, pre-emergence, 62 g ai/ha, scale 0-100, read-out: Plant response rating, Oat, Wild",10%
same,pest or weed control at 125 g/ha,"[9]; Avena fatua, pre-emergence, 125 g ai/ha, scale 0-100, read-out: Plant response rating, Oat, Wild",25%
same,pest or weed control at 16 g/ha,"[10]; Lolium multiflorum, pre-emergence, 16 g ai/ha, scale 0 (no effect) to 100 (complete control), read-out: Plant response rating, Ryegrass, Italian",0%
same,pest or weed control at 31 g/ha,"[10]; Lolium multiflorum, pre-emergence, 31 g ai/ha, scale 0 (no effect) to 100 (complete control), read-out: Plant response rating, Ryegrass, Italian",0%
same,pest or weed control at 62 g/ha,"[10]; Lolium multiflorum, pre-emergence, 62 g ai/ha, scale 0-100, read-out: Plant response rating, Ryegrass, Italian",15%
same,pest or weed control at 125 g/ha,"[10]; Lolium multiflorum, pre-emergence, 125 g ai/ha, scale 0-100, read-out: Plant response rating, Ryegrass, Italian",20%
same,pest or weed control at 16 g/ha,"[11]; Bromus tectorum, pre-emergence, 16 g ai/ha, scale 0 (no effect) to 100 (complete control), read-out: Plant response rating, Bromegrass, Downy",0%
same,pest or weed control at 31 g/ha,"[11]; Bromus tectorum, pre-emergence, 31 g ai/ha, scale 0-100, read-out: Plant response rating, Bromegrass, Downy",0%
same,pest or weed control at 62 g/ha,"[11]; Bromus tectorum, pre-emergence, 62 g ai/ha, scale 0-100, read-out: Plant response rating, Bromegrass, Downy",0%
same,pest or weed control at 125 g/ha,"[11]; Bromus tectorum, pre-emergence, 125 g ai/ha, scale 0-100, read-out: Plant response rating, Bromegrass, Downy",10%
